{"source": "patent US11191801B2", "about": "“Pharmaceutical composition for preventing or treating diabetic complications and angioedema, containing natural mixture extract as active ingredient” (KOREA INSTITUTE OF ORIENTAL MEDICINE, priority 2014, dated 2021)", "key": {"[1]": {"tested_on": "MNU-induced C57BL/6 mice", "experiment": "MNU-induced macular degeneration model, extracts versus paeoniflorin: thickness of outer nuclear layers", "format": "in vivo", "settings": "for Thickness of outer nuclear layer (AU): orally", "description": "6-week-old male C57BL/6 mice were used after purification thereof for one week. In order to induce damage and denaturation of photoreceptor cells, among morphological changes of retinal tissues which appeared in macular degeneration, 1% (0.05% acetic acid) N-methyl-N-nitrosourea (MNU, Sigma, USA) was intraperitoneally injected to the 7-week-old male C57BL/6 mice at a concentration of 60 mg/kg. The same amount of 0.05% acetic acid was intraperitoneally administered to the normal group. As the samples, CMO4 (100 mg/kg), which is the extract of cinnamon twig and moutan root bark (1:8), and CPA4 (100 mg/kg), which is the extract of cinnamon twig and peony root (1:8), paeoniflorin −2.7 (2.7 mg/kg), and paeoniflorin −12.3 (12.3 mg/kg) were suspended and prepared in 0.5% CMC and administered orally once before the MNU administration day. After administration of MNU, these resultants were orally administered once a day for seven days, respectively. In the normal and MNU-induced groups, the same amount of 0.5% CMC was orally administered.\nChange in a thickness of outer nuclear layers caused by damage to photoreceptor cells in retinal nerve tissues was confirmed.\nSpecifically, experimental groups in which the samples were treated in the same manner as Experimental Example 8-1 were autopsied after the administration, and eyeballs were enucleated. Thereafter, the enucleated eyeballs were fixed in 10% neutralized formalin for one day, and embedded with paraffin to prepare slide sections. The slide sections were stained with H&E and observed under an optical microscope."}, "[2]": {"tested_on": "human retinal pigment epithelial cell line (ARPE-19)", "settings": "Molecular Vision 2011; 17: 3512-3522; cited from earlier work"}, "[3]": {"biological_target": "T1, cross-link between AGE-BSA and collagen (Bos taurus, UniProt P02769)", "T1 construct": "purchased Transgenic Inc. Kobe, Japan (AGE-BSA); Greiner Bio-One, Germany (collagen-coated plate)", "T1 sequence (P02769 25-607)": "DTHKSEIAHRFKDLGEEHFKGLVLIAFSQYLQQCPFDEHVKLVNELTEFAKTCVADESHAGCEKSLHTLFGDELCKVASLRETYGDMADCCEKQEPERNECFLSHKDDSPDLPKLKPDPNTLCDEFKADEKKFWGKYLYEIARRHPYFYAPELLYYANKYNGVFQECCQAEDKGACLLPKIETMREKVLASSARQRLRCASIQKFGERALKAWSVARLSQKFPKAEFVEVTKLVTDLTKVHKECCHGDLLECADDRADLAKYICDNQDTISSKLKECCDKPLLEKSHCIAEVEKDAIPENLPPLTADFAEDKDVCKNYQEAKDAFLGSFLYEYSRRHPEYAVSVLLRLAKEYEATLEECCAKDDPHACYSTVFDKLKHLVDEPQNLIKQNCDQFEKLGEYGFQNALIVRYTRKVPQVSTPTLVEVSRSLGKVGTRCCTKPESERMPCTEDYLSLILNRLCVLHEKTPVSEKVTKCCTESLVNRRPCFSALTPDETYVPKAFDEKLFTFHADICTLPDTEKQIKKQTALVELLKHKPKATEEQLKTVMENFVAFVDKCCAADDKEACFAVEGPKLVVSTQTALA", "experiment": "Fragmentizing cross-link of advanced glycation end-products (AGE-BSA/collagen ELISA)", "format": "biochemical", "settings": "AGE-BSA cross-linked to collagen, 37° C., four hours", "description": "Specifically, 1.0 μg of AGE-BSA (Transgenic Inc. Kobe, Japan) was dispensed into a collagen-coated 96-well microtiter plate (Greiner Bio-One, Germany) and cultured at 37° C. for four hours, and then the AGE-BSA and collagen were allowed to cross-link. After washing the resultant three times with PBST (0.05%) to remove AGE-BSA not linked, a mixed extract and ALT-711 were added, and cultured at 37° C. for four hours. Thereafter, the resultant was washed with PBST (0.05%), and in order to detect the AGE-BSA remaining due to the cross-link to collagen, mouse monoclonal anti-AGE-BSA antibodies (6D12, Transgenic Inc. Kobe, Japan) were diluted at 1:250 and dispensed, followed by cultivation at 37° C. for one hour. After one hour, the resultant was washed with PBST (0.05%) and reacted with HRP-linked goat anti-mouse IgG antibodies (Santa Cruz, USA) to develop TMB (3.3′,5,5′-tetramethylbenzidine) as a substrate. Thereafter, absorbance was measured at 450 nm. The cross-link fragmentation effect (%) of AGE-BSA was calculated as shown in the following Equation 2."}, "[4]": {"tested_on": "advanced glycation end-products (AGEs)", "experiment": "Inhibition of producing advanced glycation end-products (AGEs) in vitro (BSA with fructose/glucose, fluorescence)", "format": "biochemical", "settings": "BSA 10 mg/mL, 0.2 M fructose and 0.2 M glucose, 37° C., seven days", "description": "Specifically, 10 mg/mL of bovine serum albumin (BSA, Sigma, USA) dissolved in 50 mM phosphate buffer (pH 7.4) was used as a protein source, and the solution mixed with 0.2 M fructose and 0.2 M glucose was used as a sugar source. The extracts of Examples and aminoguanidine (positive control group) were dissolved in 0.2% dimethylsulfoxide (DMSO), followed by dissolving again in 15% tween 80. The thus-prepared protein source, sugar source, and extracts were mixed, prepared at 1 mL in total, cultured at 37° C. for seven days, and allowed to undergo glycation. Herein, 0.02% sodium azide, an antibacterial agent, was added to prevent bacterial production. After cultivation, the fluorescence was measured at an absorption wavelength of 350 nm and an emission wavelength of 450 nm using a spectrofluorometric detector (Bio-TEK, USA)."}, "[5]": {"tested_on": "db/db mice", "experiment": "Therapeutic model with metformin co-administration: formation of acellular capillaries", "format": "in vivo", "settings": "metformin 350 mg/kg/day alone", "description": "Specifically, eyeballs were enucleated from mice in the same manner as Experimental Example 6-2, and retinas were enucleated from the eyeballs and washed with running water. Thereafter, they were placed in 3% trypsin and cultured at 37° C. for one hour. The digested retinas were transferred to PBS, and the internal membrane (membrane of organelle present in cells) was removed. The vascular frame was separated from the retinal background using a glass rod, placed on a slide, and dried. The dried vascular frame was then stained with PAS and hematoxylin, and variations in cell walls and nuclei were confirmed."}, "[6]": {"tested_on": "db/db mice", "experiment": "Therapeutic model with metformin co-administration: damage to blood-retinal barrier", "format": "in vivo", "settings": "metformin 350 mg/kg/day alone", "description": "In addition, 50 mg/mL of fluorescein-dextran (2×10^6 molecular weight) which was prepared by dissolving in sterilized PBS (1 mL) was injected into the left ventricle. After 10 minutes, the eyeballs were enucleated, and the left eyeball was placed in an eyecup. The separated retina was placed on a slide, and then mounted using aqueous mounting medium. After this was sufficiently dried, a fluorescence microscope was used to observe the same. The results were confirmed at 12 weeks, 18 weeks, and 24 weeks of inducing diabetes, respectively."}, "[7]": {"tested_on": "claudin-5 and occludin", "experiment": "Therapeutic model with metformin co-administration: damage to tight-junction proteins", "format": "in vivo, mice", "settings": "metformin 350 mg/kg/day alone", "description": "In addition, the resultant was dehydrated and substituted three times with xylene, thereby embedding the same with paraffin. Blocks of the embedded tissue were prepared as serial sections in a thickness of 4 μm, and placed on slides for use. In order to remove an endogenous peroxidase activity, a slide which underwent deparaffinization and function processes was allowed to react with 3% hydrogen peroxide solution for 10 minutes, and then washed three times with PBS containing 0.05% tween 20. […] Thereafter, the diluted primary antibodies were treated for one hour or overnight. After washing with PBS for one hour, a labeled streptoavidin biotin (LSAB) kit (Dako, USA) was applied to the resultants, developed with DAB, and then observed using an optical microscope. […] Thereafter, the resultants were stained with DAPI and observed using a fluorescence microscope."}}, "note": "Values joined by “and” are separate entries in the source; they are usually repeats but may differ in a detail not shown here. Identical values can stand only once.", "data": [{"smiles": "C[C@@]12C[C@@]3(O)O[C@@H](O1)[C@]1(COC(=O)c4ccccc4)[C@H]3C[C@@]12O[C@@H]1O[C@H](CO)[C@@H](O)[C@H](O)[C@H]1O", "note": "[paeoniflorin]", "values": [{"measurement": "Thickness of outer nuclear layer (AU)", "setting": "[1]; Table 4: CMO4 100 mg/kg, paeoniflorin 2.7 mg/kg, NOR 1.99, MNU 1.23, listed as PF-2.7", "value": "1.23±0.21", "unit": "AU"}, {"measurement": "Thickness of outer nuclear layer (AU)", "setting": "[1]; Table 5: CPA4 100 mg/kg, paeoniflorin 12.4 mg/kg, NOR 1.99, MNU 0.92, listed as PF-12.4", "value": "1.11±0.19", "unit": "AU"}, {"measurement": "Thickness of outer nuclear layer (%)", "setting": "[1]; Table 5: CPA4 100 mg/kg, paeoniflorin 12.4 mg/kg, NOR = 100, MNU = 0.57, listed as PF-12.4", "value": "17.5% and 17.46 ± 17.39%"}, {"measurement": "apoptosis caused by H2O2", "setting": "[2]", "value": "inhibitory effect on apoptosis"}]}, {"smiles": "Cc1sc[n+](CC(=O)c2ccccc2)c1C.[Cl-]", "note": "[ALT-711]", "values": [{"measurement": "IC50 (μg/mL), cross-link fragmentation effect of AGE-BSA", "setting": "[3]", "value": "17,060 ± 2.35 μg/mL"}]}, {"smiles": "N=C(N)NN", "note": "[AG, aminoguanidine]", "values": [{"measurement": "IC50 (μg/mL), inhibition of production of advanced glycation end-products", "setting": "[4]", "value": "82.50 ± 1.10", "unit": "µg/mL"}]}, {"smiles": "CN(C)C(=N)N=C(N)N", "note": "[metformin]", "values": [{"measurement": "formation of acellular capillaries", "setting": "[5]", "value": "could not prevent the proliferation"}, {"measurement": "outflow of fluorescent substances", "setting": "[6]; at 18 weeks", "value": "significantly reduced"}, {"measurement": "outflow of fluorescent substances", "setting": "[6]; at 24 weeks", "value": "not prevented"}, {"measurement": "amount of occludin (western blot)", "setting": "[7]", "value": "no significant increase"}, {"measurement": "claudin-5 loss (staining)", "setting": "[7]", "value": "snapped in various regions of blood vessels"}]}]}
